Experimental data: patent publication US20240197682A1, “METHOD FOR TREATING NEUROLOGICAL DISEASES USING SUPRAMOLECULE POLYMER THERAPEUTICS” (The Regents of the University of California, priority 2022, published 2024)
Read-outs that look alike come from different tables or passages of the source.

Assay: Parallel Artificial Membrane Permeability Assay (PAMPA)
Assay type: in vitro ADME
Settings: for PAMPA: P_app: 200 uM test compound, 4 hr; for Papp at 4 hr, 200 uM: PAMPA, read-out: PAMPA: P_app
Experimental: 5 uL of 1% lecithin (VWR 0579) dissolved in n-dodecane (Sigma Aldrich D221104) was applied to each well of a MultiScreen IP PAMPA filter plate (Millipore MAIPSWU10) and allowed to equilibrate for 5 minutes. 300 uL of PBS was added to the acceptor plate and 150 uL of 200 uM test compound dissolved in PBS and 30% ethanol was added to the donor wells before incubating the donor plate in the acceptor plate for 4 hr at 500 rpm. 100 uL was sampled from the donor and acceptor wells and the concentrations were measured by liquid chromatography-mass spectrometry (SCIEX 4500) or UV-VIS plate reader (BMG).

SMILES	PAMPA: P_app (pH 7.4) [×10e−6 cm/sec]	Papp at 4 hr, 200 uM (pH 5.0, 200 uM test compound) [×10⁻⁶ cm/s]	Papp at 4 hr, 200 uM (pH 7.4, 200 uM test compound) [×10⁻⁶ cm/s]	PAMPA: P_app (pH 5.0) [×10e−6 cm/sec]
COC(=O)c1cc2c(-c3ccccc3)nn(-c3ccccc3)c2[nH]1 [Compound 34, methyl 1,3-diphenyl-1,6-dihydropyrrolo[2,3-c]pyrazole-5-carboxylate]	–	24.4	14.3	–
CC1CCc2cn(-c3nc(-c4ccccc4)oc3-c3ccc(F)cc3)c(=O)nc2O1 (centres unmarked) [Compound 92, 3-(5-(4-fluorophenyl)-2-phenyloxazol-4-yl)-7-methyl-3,5,6,7-tetrahydro-2H-pyrano[2,3-d]pyrimidin-2-one]	–	–	1.46	–
CNC(=O)c1cc2c(C3=CCCC3)nn(-c3ccccc3)c2s1 [Compound 31, 3-(cyclopent-1-en-1-yl)-N-methyl-1-phenyl-1H-thieno[2,3-c]pyrazole-5-carboxamide]	–	14.9	16.7	–
CNc1nc(=O)n(-c2nc(-c3cccc(C)c3)oc2-c2ccc(Cl)c(F)c2)cc1F [Compound 83, 1-(5-(4-chloro-3-fluorophenyl)-2-(m-tolyl)oxazol-4-yl)-5-fluoro-4-(methylamino)pyrimidin-2(1H)-one]	–	40.3	> 50	–
O=c1nc2c(ccn2C2CC2)cn1-c1nc(-c2ccnc(C3CC3)n2)oc1-c1ccc(F)cc1 [Compound 216, 7-cyclopropyl-3-[2-(2-cyclopropylpyrimidin-4-yl)-5-(4-fluorophenyl)-1,3-oxazol-4-yl]-2H,3H,7H-pyrrolo[2,3-d]pyrimidin-2-one]	–	–	1.63	–
O=c1nc2c(ccn2C2CC2)cn1-c1nc(-c2cnc(C3CC3)nc2)oc1-c1ccc(Cl)c(F)c1 [Compound 186, 3-[5-(4-chloro-3-fluorophenyl)-2-(2-cyclopropylpyrimidin-5-yl)-1,3-oxazol-4-yl]-7-cyclopropyl-2H,3H,7H-pyrrolo[2,3-d]pyrimidin-2-one]	–	–	6.27	–
CNC(=O)c1ncc2c(-c3ccnc(C(C)(F)F)n3)nn(-c3ccc(Cl)cc3)c2n1 [Compound 22, 1-(4-chlorophenyl)-3-(2-(1,1-difluoroethyl)pyrimidin-4-yl)-N-methyl-1H-pyrazolo[3,4-d]pyrimidine-6-carboxamide]	>50.0	> 50	–	–
CNC(=O)c1cc2c(NC(=O)C3CC3)nn(-c3ccccc3)c2s1 [Compound 3, 3-(cyclopropanecarboxamido)-N-methyl-1-phenyl-1H-thieno[2,3-c]pyrazole-5-carboxamide]	>50.0	> 50	–	–
Cc1cn(-c2nc(-c3ccccc3)oc2-c2ccccc2)c(=O)nc1OCCO [Compound 77, 1-(2,5-diphenyl-1,3-oxazol-4-yl)-4-(2-hydroxyethoxy)-5-methyl-1,2-dihydropyrimidin-2-one]	>50.0	> 50	–	–
CNC(=O)c1ncc2c(-c3ccnc(C(F)(F)F)n3)nn(-c3ccc(Cl)cc3)c2n1 [Compound 37, 1-(4-chlorophenyl)-N-methyl-3-(2-(trifluoromethyl)pyrimidin-4-yl)-1H-pyrazolo[3,4-d]pyrimidine-6-carboxamide]	>50.0	> 50	–	–
CNc1nc(=O)n(-c2nc(-c3cccc(Cl)c3)oc2-c2ccc(Cl)c(F)c2)cc1F [Compound 1]	>50.0	–	–	>50.0
CNC(=O)c1cc2c(-c3ccccc3)nn(-c3ccccc3)c2o1 [Compound 38, N-methyl-1,3-diphenyl-1H-furo[2,3-c]pyrazole-5-carboxamide]	–	46.1	> 50	–
O=c1nc2c(ccn2C2CC2)cn1-c1nc(-c2ccc(F)cc2)oc1-c1ccccc1 [Compound 213, 7-cyclopropyl-3-(2-(4-fluorophenyl)-5-phenyloxazol-4-yl)-3,7-dihydro-2H-pyrrolo[2,3-d]pyrimidin-2-one]	–	36	48	–
CC(=O)Nc1ncc2c(-c3ccccc3)nn(Cc3cccnc3)c2n1 [Compound 42, N-(3-phenyl-1-(pyridin-3-ylmethyl)-1H-pyrazolo[3,4-d]pyrimidin-6-yl)acetamide]	–	46.7	37	–
COc1nccc2cc(-c3nc(-n4ccc5cccnc5c4=O)c(-c4ccc(C(F)(F)F)cc4)o3)ccc12 [Compound 124, 7-(2-(1-methoxyisoquinolin-6-yl)-5-(4-(trifluoromethyl)phenyl)oxazol-4-yl)-1,7-naphthyridin-8(7H)-one]	–	–	5.82	–

Now from value to molecule:

PAMPA: P_app (pH 7.4) [×10e−6 cm/sec]	Papp at 4 hr, 200 uM (pH 5.0, 200 uM test compound) [×10⁻⁶ cm/s]	Papp at 4 hr, 200 uM (pH 7.4, 200 uM test compound) [×10⁻⁶ cm/s]	PAMPA: P_app (pH 5.0) [×10e−6 cm/sec]	SMILES
0.664	–	–	–	O=c1nc2c(ccn2C(F)(F)F)cn1-c1nc(N2CC(F)C2)oc1-c1ccc(F)cc1 [Compound 239]
–	1.2	2	–	CNC(=O)c1cnc2c(-c3cc(F)cc(F)c3)nn(Cc3ccccc3)c2n1 [Compound 262, 1-benzyl-3-(3,5-difluorophenyl)-N-methyl-1H-pyrazolo[3,4-b]pyrazine-6-carboxamide]
–	17.9	20.7	–	CC(=O)Nc1ncc2c(-c3ccc(F)cc3)nn(Cc3ccccc3)c2n1 [Compound 263, N-(1-benzyl-3-(4-fluorophenyl)-1H-pyrazolo[3,4-d]pyrimidin-6-yl)acetamide]
–	–	2.28	–	O=c1nc2c(ccn2C(F)(F)F)cn1-c1nc(N2CCCC2)oc1-c1ccc(F)cc1 [Compound 238, 3-[5-(4-fluorophenyl)-2-(pyrrolidin-1-yl)-1,3-oxazol-4-yl]-7-(trifluoromethyl)-2H,3H,7H-pyrrolo[2,3-d]pyrimidin-2-one]
3.6	–	–	2.8	CCC(=O)Nc1ncc2c(-c3ccccc3)nn(-c3ccccc3)c2n1 [Compound 273]
13.5	–	–	7.9	CNC(=O)c1cc2c(-c3ccccc3)nn(-c3ccc(F)cc3)c2o1 [Compound 292]
>50	–	–	>50	CNC(=O)c1ncc2c(-c3ccc(F)cc3)nn(Cc3ccccc3)c2n1 [Compound 250]
>50	> 50	–	–	c1ccc(Cn2nc(-c3ccccc3)c3cnc(-c4cnn[nH]4)nc32)cc1 [Compound 284, 1-benzyl-3-phenyl-6-(1H-1,2,3-triazol-5-yl)-1H-pyrazolo[3,4-d]pyrimidine]
>50	–	–	>50	CC(=O)Nc1ncc2c(-c3ccccc3)nn(Cc3ccccn3)c2n1 [Compound 278]
1.3	–	–	0.8	O=C(Nc1ncc2c(-c3ccccc3)nn(-c3ccccc3)c2n1)C1CC1 [Compound 275]
>50	–	–	47.1	CNC(=O)c1ncc2c(-c3ccccc3)nn(Cc3cccc(F)c3)c2n1 [Compound 249]
26.4	–	–	27.1	CC(=O)Nc1ncc2c(-c3ccccc3)nn(Cc3ccccc3)c2n1 [Compound 264]
>50	–	–	>50	CNC(=O)c1ncc2c(-c3cc(F)cc(F)c3)nn(Cc3ccccc3)c2n1 [Compound 252]
>50	–	–	>50	CCn1nc(-c2ccccc2)c2cnc(NC(C)=O)nc21 [Compound 277]
–	8.8	8.9	–	CC(=O)Nc1ncc2c(-c3ccccc3)nn(-c3ccccc3)c2n1 [Compound 272, N-(1,3-diphenyl-1H-pyrazolo[3,4-d]pyrimidin-6-yl)acetamide]
>50	> 50	–	–	CC(=O)Nc1ncc2c(-c3ccccc3)nn(-c3cccnc3)c2n1 [Compound 276, N-(3-phenyl-1-(pyridin-3-yl)-1H-pyrazolo[3,4-d]pyrimidin-6-yl)acetamide]
